We go through 28 compounds from US9745280B2, “Compound or pharmaceutically acceptable salt thereof, and pharmaceutical composition containing same as active ingredient” (SNU R&DB FOUNDATION, priority 2012, dated 2017).

pIC50: −log10 of the molar value.

The first test has as its system HIF-1α. The experiment in a line: HIF-1α inhibitory activity, hypoxia-response element-luciferase in HRE-A549 cells. The format is cell-based. To be noted: HIF-1α inhibition, HRE-A549. The protocol:
HRE-A549 cells stably transfected with hypoxia-response element-luciferase construct were incubated in Dulbecco's modified Eagle's medium. Following overnight serum deprivation, the cells were treated with or without Deguelin or example compounds. After 1 h incubation, the cells were incubated in hypoxia-chamber for 24 h at 37° C. Luciferase activity was measured by adding luciferase assay reagent (Promega, Madison, Wis.).
For `COc1c(C(=O)Cc2ccccc2F)ccc2c1C=CC(C)(C)O2` [Example 67, 2-(2-fluorophenyl)-1-(5-methoxy-2,2-dimethyl-2H-chromen-6-yl)ethanone], the “times lower concentration compared to Comparative Example 1 (Deguelin)” value was 2.

The test is the same for the next values; noted with them: HRE-A549 cells, hypoxia-chamber 24 h, luciferase activity; read-out: IC50.
Broadly, the pIC50 is the negative decadic logarithm of the IC50, by convention in mol/L. For `COc1c(C(=O)Cc2ccc(F)c(F)c2)ccc2c1C=CC(C)(C)O2` [Example 56, 2-(3,4-difluorophenyl)-1-(5-methoxy-2,2-dimethyl-2H-chromen-6-yl)ethanone], the pIC50 is 5.89.
The same measure, in the same setting: the result for `COc1c(C(=O)Cc2ccc3c(c2)OCCO3)ccc2c1C=CC(C)(C)O2` [Example 58, 2-(2,3-dihydrobenzo[b][1,4]dioxin-6-yl)-1-(5-methoxy-2,2-dimethyl-2H-chromen-6-yl)ethanone] reads 5.87; that for `COc1c(C(=O)Cc2ccccc2)ccc2c1C=CC(C)(C)O2` [Example 59, 1-(5-methoxy-2,2-dimethyl-2H-chromen-6-yl)-2-phenylethanone], 6.05; that for `COc1c(C(=O)Cc2ccccc2Cl)ccc2c1C=CC(C)(C)O2` [Example 64, 2-(2-chlorophenyl)-1-(5-methoxy-2,2-dimethyl-2H-chromen-6-yl)ethanone], 6.48.
Still for that read-out and setting: the figure for `COc1c(C(=O)Cc2cccc(F)c2)ccc2c1C=CC(C)(C)O2` [Example 66, 2-(3-fluorophenyl)-1-(5-methoxy-2,2-dimethyl-2H-chromen-6-yl)ethanone] is 6.44.
On the same count and under the same terms, the figure for `COc1c(C(=O)Cc2ccccc2F)ccc2c1C=CC(C)(C)O2` [Example 67, 2-(2-fluorophenyl)-1-(5-methoxy-2,2-dimethyl-2H-chromen-6-yl)ethanone] is 7.10; for `COc1c(C(=O)Cc2cccc(Cl)c2)ccc2c1C=CC(C)(C)O2` [Example 68, 2-(3-chlorophenyl)-1-(5-methoxy-2,2-dimethyl-2H-chromen-6-yl)ethanone] it is 6.21; for `COc1c(C(=O)Cc2ccccc2C(F)(F)F)ccc2c1C=CC(C)(C)O2` [Example 69, 1-(5-methoxy-2,2-dimethyl-2H-chromen-6-yl)-2-(2-(trifluoromethyl)phenyl)ethanone] it is 5.67.
Regarding `COc1c(C(=O)Cc2ccc(C#N)cc2)ccc2c1C=CC(C)(C)O2` [Example 72, 4-(2-(5-methoxy-2,2-dimethyl-2H-chromen-6-yl)-2-oxoethyl)benzonitrile], the pIC50 is 5.90.
As for `COc1c(C(=O)Cc2ccc(F)cc2)ccc2c1C=CC(C)(C)O2` [Example 73, 2-(4-fluorophenyl)-1-(5-methoxy-2,2-dimethyl-2H-chromen-6-yl)ethanone], the pIC50 is 5.99.
`COc1c(C(=O)Cc2ccc(Cl)cc2)ccc2c1C=CC(C)(C)O2` [Example 74, 2-(4-chlorophenyl)-1-(5-W methoxy-2,2-dimethyl-2H-chromen-6-yl)ethanone]: the pIC50 was 5.90.

The next test concerns H1299 NSCLC (non-small cell lung cancer) cells. The experiment in a line: Cancer cell growth inhibition (MTS). The format is cell-based. To be noted: Homo sapiens, NCI-H1299, 48 hours, MTS reagent. As to the method: To investigate the inhibitory effect of the compounds of Examples of the present invention on cancer cell growth, the following experiment was performed. Particularly, H1299 NSCLC (non-small cell lung cancer) cells were distributed in a 96-well plate at the density of 5×10^3 cells/well, followed by culture in a 37° C., 5% CO2 incubator for 24 hours. The compound of each example was dissolved in DMSO (10 nM, 100 nM, 1 μM, 10 μM), which was treated to each well. 48 hours later, cell growth was measured by using MTS reagent (3-(4,5-dimethylthiazole-2-yl)-5-(3-carboxymethoxyphenyl)-2-(4-sulfophenyl)-2H-tetrazolium). The experiment was performed in triplicate and the standard error of the analysis result was corrected.
Compound `COc1cc2c(cc1OC)[C@H](C(=O)c1ccc3c(c1)C=CC(C)(C)O3)CCO2` (stereo in doubt) [Example 26, (6,7-Dimethoxychroman-4-yl) (2,2-dimethyl-2H-chromen-6-yl)methanone] gave a pIC50 of 5.42.
On the same count and under the same terms, the result for `CC1(C)C=Cc2c(ccc3c2O[C@@H]2COc4cc(O)c(O)cc4[C@@H]2C3=O)O1` [Example 4, (7aS,13aS)-13,13a-Dihydro-9,10-dihydroxy-3,3-dimethyl-3H-chromeno[3,4-b]pyrano[2,3-h]chromen-7(7aH)-one] reads 6.01.
The same measure, in the same setting: the figure for `COc1cc2c(cc1OC)-c1c(oc3c4c(ccc3c1=O)OC(C)(C)C=C4)CO2` [Example 5, 9,10-Dimethoxy-3,3-dimethyl-3H-chromeno[3,4-b]pyrano[2,3-h]chromen-7-(13H)-one] is 5.00; for `COc1cc2c(cc1OC)[C@@H]1Cc3ccc4c(c3O[C@@H]1CO2)C=CC(C)(C)O4` [Example 7, (7aS,13aS)-9,10-Dimethoxy-3,3-dimethyl-7,7a,13,13a-tetrahydro-3H-chromeno[3,4-b]pyrano[2,3-h]chromene] it is 5.38; for `CCO[C@@H]1c2ccc3c(c2O[C@@H]2COc4cc(OC)c(OC)cc4[C@H]12)C=CC(C)(C)O3` [Example 9, (7S,7aR,3aS)-9,10-Dimethoxy-3,3-dimethyl-7-ethoxy-7,7a,13,13a-tetrahydro-3H-chromeno[3,4-b]pyrano[2,3-h]chromene] it is 5.01.
With `CCCO[C@@H]1c2ccc3c(c2O[C@@H]2COc4cc(OC)c(OC)cc4[C@H]12)C=CC(C)(C)O3` [Example 10, (7S,7aR,3aS)-9,10-Dimethoxy-3,3-dimethyl-7-propoxy-7,7a,13,13a-tetrahydro-3H-chromeno[3,4-b]pyrano[2,3-h]chromene], the pIC50 was 4.98.
Compound `COc1cc2c(cc1OC)[C@@H]1[C@H](OC(C)=O)c3ccc4c(c3O[C@@H]1CO2)C=CC(C)(C)O4` [Example 13, (7S,7aS,13aS)-9,10-Dimethoxy-3,3-dimethyl-7,7a,13,13a-tetrahydro-3H-chromeno[3,4-b]pyrano[2,3,h]chromen-7-yl acetate] gave a pIC50 of 6.17.
Same read-out and setting: the result for `COc1cc2c(cc1OC)[C@@H]1/C(=N/O)c3ccc4c(c3O[C@@H]1CO2)C=CC(C)(C)O4` [Example 16, (7aR,13aS)-9,10-Dimethoxy-3,3-dimethyl-13,13a-dihydro-3H-chromeno[3,4-b]pyrano[2,3-h]chromen-7(7aH)-one oxime] reads 6.52; that for `CO/N=C1\c2ccc3c(c2O[C@@H]2COc4cc(OC)c(OC)cc4[C@H]12)C=CC(C)(C)O3` [Example 17, (7aR,13aS)-9,10-Dimethoxy-3,3-dimethyl-13,13a-dihydro-3H-chromeno[3,4-b]pyrano[2,3-h]chromen-7(7aH)-one O-methyloxime], 5.37.
With `COc1cc2c(cc1OC)[C@@H]1C(=O)c3ccc(OC)c(CC=C(C)C)c3O[C@@H]1CO2` [Example 21, 2,3,9-Trimethoxy-8-(3-methyl-but-2-enyl)-6a,12a-dihydro-6H-chromeno[3,4-b]chromen-12-one], the pIC50 was 5.28.
The compound `COc1ccc([C@H]2COc3c(ccc4c3C=CC(C)(C)O4)C2=O)cc1OC` [Example 25, (3S)-3-(3,4-Dimethoxyphenyl)-8,8-dimethyl-2,3-dihydro-4H,8H-pyrano[2,3-f]chromen-4-one] gave a pIC50 of 5.35.
`COc1ccc(CC(=O)c2ccc3c(c2)C=CC(C)(C)O3)cc1OC` [Example 27, 2-(3,4-Dimethoxyphenyl)-1-(2,2-dimethyl-2H-chromen-6-yl)ethanone] gave a pIC50 of 6.00.
With `COc1ccc(C(C)C(=O)c2ccc3c(c2OC)C=CC(C)(C)O3)cc1OC` (centres unmarked) [Example 29, 2-(3,4-Dimethoxyphenyl)-1-(5-methoxy-2,2-dimethyl-2H-chromen-6-yl)propan-1-one], the pIC50 was 6.14.
Same read-out and setting: the result for `COc1ccc(C(C)(C)C(=O)c2ccc3c(c2OC)C=CC(C)(C)O3)cc1OC` [Example 30, 2-(3,4-Dimethoxyphenyl)-1-(5-methoxy-2,2-dimethyl-2H-chromen-6-yl)-2-methylpropan-1-one] reads 5.49; that for `COc1ccc(C2(C(=O)c3ccc4c(c3OC)C=CC(C)(C)O4)CC2)cc1OC` [Example 32], 3.99; that for `COc1ccc([C@H](C)C(=O)c2ccc3c(c2OC)C=CC(C)(C)O3)cc1OC` [Example 33, (S)-2-(3,4-Dimethoxyphenyl)-1-(5-methoxy-2,2-dimethyl-2H-chromen-6-yl)propan-1-one], 6.31.
On the same count and under the same terms, the figure for `COc1ccc([C@@H](C)C(=O)c2ccc3c(c2OC)C=CC(C)(C)O3)cc1OC` [Example 34, (R)-2-(3,4-Dimethoxyphenyl)-1-(5-methoxy-2,2-dimethyl-2H-chromen-6-yl)propan-1-one] is 5.89.
